The text below walks through data of ChEMBL document CHEMBL4219271, “Synthesis and anti-proliferative activity of allogibberic acid derivatives containing 1,2,3-triazole pharmacophore” (Bioorg Med Chem Lett, 2018).

One assay has as its system A549. The experiment in a line: Cytotoxicity against human A549 cells assessed as decrease in cell viability after 4 days by MTT assay. Type of assay: functional, cell-based. Particulars: A549, 96 h. (In general: Tetrazolium assays rely on reduction of a dye to a coloured formazan, in cell work by metabolically active cells.)
The test system of another assay is SMMC-7721. Description: Cytotoxicity against human SMMC7721 cells assessed as decrease in cell viability after 4 days by MTT assay. Type of assay: functional, cell-based. The following applies: SMMC-7721, 96 h.
For assay [1], the system named is SW480. The experiment in a line: Cytotoxicity against human SW480 cells assessed as decrease in cell viability after 4 days by MTT assay. Type of assay: functional, cell-based. Particulars: SW480, 96 h.
For assay [2], the system named is MCF7. The experiment in a line: Cytotoxicity against human MCF7 cells assessed as decrease in cell viability after 4 days by MTT assay. The following applies: MCF7, 96 h. Type of assay: functional, cell-based.
A further assay concerns HL-60. Description: Cytotoxicity against human HL60 cells assessed as decrease in cell viability after 4 days by MTT assay. The format is functional, cell-based. Particulars: HL-60, 96 h.
For assay [3], the system named is MCF7. The experiment in a line: Potency index, ratio of cisplatin IC50 to compound IC50 for human MCF7 cells. The format is functional.
The subject of assay [4] is SW480. Description: Potency index, ratio of cisplatin IC50 to compound IC50 for human SW480 cells. Type of assay: functional.

Structures are written as SMILES.

As to `C=C1C(=O)[C@]23C[C@@]1(O)CC[C@H]2c1ccc(OS(=O)(=O)c2ccc(C)cc2)c(C)c1[C@@H]3Cn1cc(-c2ccc(OC)cc2)nn1`, the IC50 (as a rule, the concentration needed to halve the response being measured) in the assay on A549 came to 1.47 µM; with SMMC-7721 it was 1.72 µM; in the assay with SW480 [1] it was 1.64 µM; with MCF7 [2] it was 0.31 µM; in the assay on HL-60, 1.02 µM. Besides, the “Ratio IC50” value in the assay with MCF7 [3] was 37.

With `C=C1C(=O)[C@]23C[C@@]1(O)CC[C@H]2c1ccc(OS(=O)(=O)c2ccc(C)cc2)c(C)c1[C@@H]3Cn1cc(-c2ccc(F)cc2)nn1`, the IC50 in the assay with A549 came to 1.95 µM; in the assay on SMMC-7721, 4.28 µM; in the assay with SW480 [1] it was 1.63 µM; in the assay on MCF7 [2], 0.33 µM; with HL-60 it was 1.29 µM. For the same molecule, the “Ratio IC50” value with MCF7 [3] came out at 35.

Consider `C=C1C(=O)[C@]23C[C@@]1(O)CC[C@H]2c1ccc(OS(=O)(=O)c2ccc(C)cc2)c(C)c1[C@@H]3Cn1cc(-c2ccccn2)nn1`, for which the IC50 in the assay with A549 amounted to 2.31 µM; in the assay on SMMC-7721, 2.83 µM; with SW480 [1], 1.97 µM; with MCF7 [2], 0.32 µM; in the assay on HL-60, 1.81 µM. The “Ratio IC50” value in the assay with MCF7 [3] amounted to 36.

As for `C=C1C(=O)[C@]23C[C@@]1(O)CC[C@H]2c1ccc(OS(=O)(=O)c2ccc(C)cc2)c(C)c1[C@@H]3Cn1cc(-c2ccc(Br)cc2)nn1`, the IC50 was 1.63 µM with A549; 4.32 µM with SMMC-7721; 1.59 µM in the assay on SW480 [1]; 0.25 µM with MCF7 [2]; 1.02 µM with HL-60. In the assay on MCF7 [3], the “Ratio IC50” value was 46.

Take `C=C1C(=O)[C@]23C[C@@]1(O)CC[C@H]2c1ccc(O)c(C)c1[C@@H]3Cn1cc(-c2ccc(OC)cc2)nn1`: the IC50 in the assay on A549 is 1.25 µM; in the assay with SMMC-7721 it was 0.86 µM; with SW480 [1] it was 0.22 µM; in the assay on MCF7 [2], 1.71 µM; with HL-60, 1.15 µM. For the same molecule, the “Ratio IC50” value in the assay with SW480 [4] is given as 39.

With `C=C1C(=O)[C@]23C[C@@]1(O)CC[C@H]2c1ccc(O)c(C)c1[C@@H]3Cn1cc(-c2ccc(C(F)(F)F)cc2)nn1`, the IC50 in the assay on A549 turned out to be 1.11 µM; in the assay on SMMC-7721, 1.44 µM; in the assay on SW480 [1], 0.37 µM; with MCF7 [2], 1.84 µM; with HL-60, 0.72 µM. In addition, the “Ratio IC50” value in the assay on SW480 [4] came out at 22.

Regarding `C=C1C(=O)[C@]23C[C@@]1(O)CC[C@H]2c1ccc(O)c(C)c1[C@@H]3Cn1cc(-c2ccccn2)nn1`, the IC50 with A549 came out at 1.57 µM; in the assay on SMMC-7721, 1.27 µM; with SW480 [1], 0.41 µM; in the assay on MCF7 [2], 2.24 µM; in the assay on HL-60 it was 1.97 µM. In addition, the “Ratio IC50” value in the assay with SW480 [4] is 20.

With `C=C1C(=O)[C@]23C[C@@]1(O)CC[C@H]2c1ccc(O)c(C)c1[C@@H]3Cn1cc(-c2ccc(Cl)cc2)nn1`, the IC50 in the assay with A549 was found to be 0.64 µM; with SMMC-7721 it was 0.67 µM; in the assay on SW480 [1], 0.28 µM; in the assay on MCF7 [2], 2.47 µM; in the assay on HL-60, 0.69 µM. The “Ratio IC50” value in the assay on SW480 [4] is recorded as 29.

In the case of `C=C1C(=O)[C@]23C[C@@]1(O)CC[C@H]2c1ccc(OS(=O)(=O)c2ccc(C)cc2)c(C)c1[C@@H]3Cn1cc(-c2ccc(C)cc2)nn1`, the IC50 turned out to be 1.83 µM in the assay with A549; 4.41 µM in the assay on SMMC-7721; 1.46 µM in the assay on SW480 [1]; 0.32 µM in the assay with MCF7 [2]; 1.11 µM with HL-60. The “Ratio IC50” value in the assay with MCF7 [3] is given as 36.

`C=C1C(=O)[C@]23C[C@@]1(O)CC[C@H]2c1ccc(O)c(C)c1[C@@H]3Cn1cc(-c2ccc(C)cc2)nn1`: the IC50 in the assay on A549 was determined as 1.26 µM; in the assay on SMMC-7721, 0.92 µM; in the assay with SW480 [1], 0.33 µM; in the assay on MCF7 [2], 0.37 µM; in the assay with HL-60, 0.83 µM. Moreover, in the assay with SW480 [4], the “Ratio IC50” value was 25.

Regarding `C=C1C(=O)[C@]23C[C@@]1(O)CC[C@H]2c1ccc(O)c(C)c1[C@@H]3Cn1cc(-c2ccc(Br)cc2)nn1`, the IC50 in the assay with A549 was 1.14 µM; with SMMC-7721, 1.3 µM; with SW480 [1] it was 0.31 µM; in the assay on MCF7 [2] it was 0.27 µM; in the assay with HL-60 it was 0.56 µM. Moreover, in the assay on SW480 [4], the “Ratio IC50” value is listed as 36.

Consider `C=C1C(=O)[C@]23C[C@@]1(O)CC[C@H]2c1ccc(OS(=O)(=O)c2ccc(C)cc2)c(C)c1[C@@H]3Cn1cc(-c2ccc(Cl)cc2)nn1`, for which the IC50 is 1.87 µM in the assay with A549; 6.18 µM in the assay with SMMC-7721; 2.39 µM with SW480 [1]; 1.44 µM in the assay with MCF7 [2]; 1.26 µM in the assay with HL-60. In the assay on MCF7 [3], the “Ratio IC50” value amounted to 8.

Turning to `C=C1C(=O)[C@]23C[C@@]1(O)CC[C@H]2c1ccc(O)c(C)c1[C@@H]3Cn1cc(-c2ccccc2)nn1`, the IC50 was 1.16 µM in the assay with A549; 1.32 µM with SMMC-7721; 0.26 µM in the assay on SW480 [1]; 1.74 µM with MCF7 [2]; 0.75 µM in the assay on HL-60. For the same molecule, the “Ratio IC50” value with SW480 [4] is listed as 31.

For the molecule `Cc1ccc(S(=O)(=O)Oc2ccc3c(c2C)[C@H](Cn2cc(-c4ccccn4)nn2)[C@@]24CC(=O)[C@@](C)(CC[C@@H]32)C4)cc1`, the IC50 with A549, in the assay on SMMC-7721, with SW480 [1], in the assay on MCF7 [2] and in the assay on HL-60 was over 20 µM in each case.

As to `C=C1C[C@]23C[C@@]1(O)CC[C@@H]2c1cccc(C)c1[C@@H]3Cn1cc(-c2ccc(F)cc2)nn1`, the IC50 with A549, in the assay on SMMC-7721, in the assay with SW480 [1], in the assay with MCF7 [2] and with HL-60 was over 20 µM each time.

Turning to `C=C1C[C@]23C[C@@]1(O)CC[C@H]2c1ccc(O)c(C)c1[C@@H]3Cn1cc(-c2ccc(Br)cc2)nn1`, the IC50 in the assay with A549, in the assay with SMMC-7721, in the assay on SW480 [1], in the assay with MCF7 [2] and in the assay on HL-60 was over 20 µM throughout.
